Where two headings read alike, the source gives them in different places. Bounds are passed on as bounds.

For experiment [1], the target named is T1, hog liver glycinamide ribonucleotide formyltransferase (GARFTase) (Sus scrofa, UniProt A0A8W4FJW8).
T1 construct: hog liver glycinamide ribonucleotide formyltransferase; from tissue; host or cells: hog liver
T1 sequence (A0A8W4FJW8 1-1009): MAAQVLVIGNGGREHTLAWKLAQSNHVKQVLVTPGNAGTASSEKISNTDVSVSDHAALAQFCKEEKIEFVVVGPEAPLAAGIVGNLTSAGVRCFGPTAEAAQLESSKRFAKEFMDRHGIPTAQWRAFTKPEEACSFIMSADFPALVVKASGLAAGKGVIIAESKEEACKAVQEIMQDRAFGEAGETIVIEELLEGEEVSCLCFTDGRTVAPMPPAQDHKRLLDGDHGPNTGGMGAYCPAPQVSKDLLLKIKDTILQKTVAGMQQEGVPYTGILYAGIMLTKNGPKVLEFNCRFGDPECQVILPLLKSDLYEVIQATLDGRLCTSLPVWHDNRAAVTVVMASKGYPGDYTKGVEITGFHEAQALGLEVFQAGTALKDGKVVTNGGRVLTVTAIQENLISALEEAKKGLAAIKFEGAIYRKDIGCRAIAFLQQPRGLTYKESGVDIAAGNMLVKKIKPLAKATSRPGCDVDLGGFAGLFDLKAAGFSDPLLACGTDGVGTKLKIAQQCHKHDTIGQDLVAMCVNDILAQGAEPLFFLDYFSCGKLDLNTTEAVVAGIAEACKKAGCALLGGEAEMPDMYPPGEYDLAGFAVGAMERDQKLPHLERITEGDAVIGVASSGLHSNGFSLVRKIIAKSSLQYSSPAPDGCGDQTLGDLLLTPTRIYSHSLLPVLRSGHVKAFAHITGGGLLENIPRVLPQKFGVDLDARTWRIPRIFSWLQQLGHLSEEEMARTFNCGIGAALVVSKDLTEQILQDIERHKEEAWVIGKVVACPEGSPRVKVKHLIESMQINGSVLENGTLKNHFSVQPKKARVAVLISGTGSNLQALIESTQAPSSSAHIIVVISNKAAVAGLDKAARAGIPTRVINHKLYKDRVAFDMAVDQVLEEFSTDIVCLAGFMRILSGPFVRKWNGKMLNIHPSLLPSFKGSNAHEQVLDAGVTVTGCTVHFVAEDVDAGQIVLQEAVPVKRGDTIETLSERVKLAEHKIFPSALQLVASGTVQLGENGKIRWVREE
The experiment can be described thus: Inhibition of hog liver glycinamide ribonucleotide formyltransferase. The format is biochemical. The settings on record: for IC50: hog liver enzyme, (R,S) diastereomer mixture where marked, read-out: I50 (μM) GARFTase. An excerpt:
The representative compound of the present invention is 10-formyl-5,8,10-trideazatetrahydrofolic acid (FTDF) having the formula 1.

The target in experiment [2] is AICARFTase (Homo sapiens, UniProt P31939). Briefly: Inhibition of AICARFTase. The experiment is classed as biochemical.
AICARFTase, sequence (P31939 whole entry): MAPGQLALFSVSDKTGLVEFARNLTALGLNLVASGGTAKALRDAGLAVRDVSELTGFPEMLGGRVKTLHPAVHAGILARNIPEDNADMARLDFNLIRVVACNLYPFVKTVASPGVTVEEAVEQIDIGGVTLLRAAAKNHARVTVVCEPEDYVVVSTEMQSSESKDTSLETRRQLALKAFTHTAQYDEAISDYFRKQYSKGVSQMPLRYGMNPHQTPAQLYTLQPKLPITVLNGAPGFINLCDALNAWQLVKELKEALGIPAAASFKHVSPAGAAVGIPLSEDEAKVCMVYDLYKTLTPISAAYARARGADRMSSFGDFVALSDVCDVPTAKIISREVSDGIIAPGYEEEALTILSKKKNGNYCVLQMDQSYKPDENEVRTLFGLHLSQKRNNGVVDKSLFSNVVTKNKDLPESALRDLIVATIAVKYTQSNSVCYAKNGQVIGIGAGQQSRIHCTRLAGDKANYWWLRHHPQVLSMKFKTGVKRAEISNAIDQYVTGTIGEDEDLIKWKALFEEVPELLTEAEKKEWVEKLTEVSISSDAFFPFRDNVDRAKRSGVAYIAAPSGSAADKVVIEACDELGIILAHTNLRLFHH

In the case of `Nc1nc(N)c(CCCNc2ccc(C(=O)N[C@@H](CCC(=O)O)C(=O)O)cc2)c(=O)[nH]1` [Compound 5-DACTHF, 5-deazaacyclotetrahydrofolic acid, reference compound], the IC50 in experiment [1] was determined as 2.5 µM. `Nc1nc2c(c(=O)[nH]1)CC(CCc1ccc(C(=O)N[C@@H](CCC(=O)O)C(=O)O)cc1)CN2` (some centres unmarked) [DDATHF, 5,10-dideazatetrahydrofolic acid, reference compound]: the IC50 in experiment [2] was > 500 µM. Consider `Nc1nc2ccc(CC(C=O)c3ccc(C(=O)N[C@@H](CCC(=O)O)C(=O)O)cc3)cc2c(=O)[nH]1` (some centres unmarked) [FTDF, 10-Formyl-5,8,10-trideazafolic Acid], for which, in experiment [1] (hog liver GARFTase, identical experimental conditions), the “potency against GARFTase relative to DDATHF” value is on record as “almost twice as potent”. Further, the IC50 in experiment [1] is 0.15 µM; in experiment [2] (read-out: I50 (μM) AICARFTase), 18 µM.

Source of the values: US5145854A, “1-formyl-5,8,10-trideazafolates” (priority 1991, dated 1992).
